Measurements: patent US7786257B2, “Signal-1/signal-2 bifunctional peptide inhibitors” (priority 2000, dated 2010)
Entries after “also recorded” stand apart in the source; their conditions may differ. Where no end group is shown, it is not given here. [ ]: non-standard residue; d: D form. Ahx = NCCCCCC(=O)O

Columns and labels:
[1] = system: MHC-II and ICAM-1 on NOD spleenocytes; assay: Inhibition of biotinylated BPI binding to NOD spleenocytes by monoclonal antibodies to MHC-II or ICAM-1; design: species or system mouse; conditions: mAb 10-3.62 or 3E2 at 5 μg/ml
Experimental: Specifically, it was verified that the peptide binds to MHC molecules on live APC. Briefly, spleen cell density-gradient fractions (from mice), or PBL, or APC lines (from humans) were incubated in round bottom 96-well plates with increasing concentrations of individual biotinylated peptides at 37° C., 5% CO2 for 16 hours. Following binding of the BPI to the APC, Avidin-FITC was incubated with the cells on ice for 30 minutes, followed by biotinylated anti-Avidin for 1 hour, then again with Avidin-FITC. For BPI titrations, increasing concentrations (0.1-100 μM) of the biotinylated derivatives in sterile 0.5% BSA-PBS were incubated with the APC for 16 hours as above. […] Three-color analyses used Cy-Chrome or PE-conjugated antibodies to known surface markers of APC that were commercially available. Avidin-FITC and biotinylated anti-Avidin detection of the bound peptide was as previously described in Murray et al., 24 Eur. J. Immunol. 2337-2344 (1994); Murray; 19 Immunology Today 157-163; and Schountz et al., 157 The Journal of Immunology 3893-3901 (1996). […]
However, either purified 10-3.62 (anti-MHC-II) or 3E2 (anti-ICAM-1) were included in the overnight incubation of the spleen cells with the biotinylated BPI. […] Analyses were gated on forward/side scatter dotplots for live lymphocytes and 20,000 events were analyzed for each histogram.

NOD.Scid mice = assay: NOD.Scid adoptive transfer model of diabetes progression (blood glucose); assay type: in vivo, mouse; conditions: 7 weeks post adoptive transfer; CD4+ T-cells from treated mice co-transferred with CD25-depleted inducer cells
Experimental: In another example which tested the diabetes BPI in vivo, 15 million disease-linked lymphocytes (i.e., patient T-cells, or T-cell populations linked to the disease process) were injected with or without T-cells that received the BPI compound (in vivo or in vitro) and were expanded for 24 hours in recombinant IL-2. […] For blocking spontaneous diabetes, five groups of ten female NOD mice (12 weeks of age) were used and monitored for nondiabetic blood glucose levels with a standard glucometer (AccuChek-complete, Roche Diagnostic). Each mouse was labeled and individually monitored for blood glucose levels weekly for the course of the experiment. The five groups received either (a) intravenous (i.v.) injection of the BPI (100 μg in 100 μl endotoxin-free saline/injection) at 8 weeks of age, (b) same dose GAD65 (208-217) epitope alone, (c) same dose CD11a (237-247) peptide alone, or (d) saline alone.
NOD spleen cells from 8 week (non-diabetic) females were used to enrich a CD25-/CTLA4-depleted population by treatment with purified monoclonal antibody (mAb 7D4, PharMingen) followed by low-tox rabbit complement (Cedarlane) (80% depletion of CTLA4+ cells by flow analysis with PE-labeled UC10-4F10-11 mAb; not shown). […] In vitro clonal expansion was with either recombinant IL-2 (R&D systems), or ConA, as described for the ELISPOT experiments. […]

NOD mice = assay: Lymphocytic infiltration of pancreatic islets (insulitis) in NOD mice, histological scoring; assay type: in vivo, mouse
Excerpt: To evaluate the disease process by immunohistology (see, e.g., FIG. 12A-D), spleen, pancreas, or other target organs, e.g., the CNS for the MDP peptide BPI, or lung for the RSV peptide BPI, were removed from euthanized mice of each group and prepared for histology by fixing in neutral buffered formalin and embedding in paraffin, or snap frozen in O.C.T. medium. For scoring inflammation, minimums of five sections from each mouse were used to assess the blocking affect of a given BPI. For characterization of standard T-cell markers on cellular infiltrates, biotinylated mAb to various cell surface antigens will be incubated individually with the Cryostat sections (2 hours), followed by avidin-alkaline phosphatase (Vector laboratories). Alternatively, cell subsets will be phenotyped by standard flow cytometry methods as described in Murray et al., 24 Eur. J. Immunol. 2337-2344 (1994); Murray; 19 Immunology Today 157-163; and Schountz et al., 157 The Journal of Immunology 3893-3901 (1996). Finally, the students t-test or ANOVA will be used to estimate the statistical significance of differences observed between groups and individual mice.
These studies sought to confirm that the BPI containing the immunodominant GAD65 TCR epitope (EGAD-BPI) was biologically active in vivo and inhibited the development of pancreatic inflammation. Groups of three normal glycemic NOD males (8 weeks old) were immunized with the GAD65 (208-217) peptide in CFA as described in Example 4. The control group received PBS, and separate experimental groups received either the EGAD-BPI, the GAD peptide alone (i.e., the T-cell receptor epitope), or the CD11a peptide alone(i.e., the second signal receptor moiety) by two intravenous injections as described in Example 4. On day 10, the pancreata were removed to 10% PBS-buffered formalin, embedded in paraffin, and five-micron serial sections were examined histologically for mononuclear cell infiltration as previously described by Yoon, et al., Control of Autoimmune Diabetes in NOD Mice by GAD Expression or Suppression in β Cells, 284 Science 1183-1187 (1999), the entirety of which is hereby incorporated by reference.

Substance: GAD65(208-217)-[Ac-G-Ac-G-Ac]-CD11a (237-247) (EIAPVFVLLE[Ahx]G[Ahx]G[Ahx]ITDGEATDSG) [EGAD-BPI]
- BPI binding in presence of monoclonal antibody to MHC-II or ICAM-1 [1]: effectively block binding
- BPI binding in presence of monoclonal antibody to MHC-II or ICAM-1 ([1]; listed as BPI): blocked BPI binding
- mice showing hyperglycemia and progression to diabetes (NOD.Scid mice): 40%
- intact / normal islets without infiltration (grade-0 islets), percentage of islets examined (NOD mice; NOD males, GAD65 peptide in CFA, two i.v. injections of 40 nanomoles, day 10): Over 95%
- mononuclear cell infiltration of islets (insulitis), in words (NOD mice; NOD males, day 10, histology): clear inhibitory effect; also recorded: predominately intact
- inhibition of insulitis (NOD mice; compared to the PBS control, calculated from % islets at grade 1-4): 84%
